This passage reports Ki results from patent US7273880B2, “Selective NPY (Y5) antagonists” (H. Lunbeck A/S, priority 1999, dated 2007).

The target in experiment [1] is hNPY-1,2,4 (human Y1, Y2, Y4 receptors). As to the kind of experiment: Radioligand binding to membranes, cloned human Y1, Y2 and Y4 receptors. To be noted: one bound given for all three. On the procedure:
Binding of the compounds of the present invention to human Y1, Y2, Y4, and Y5 receptors was evaluated using stably transfected 293 or LM(tk-) cells as described above. Stably transfected cell lines which may be used for binding assays include, for example, for the human Y1 receptor, 293-hY1-5 (deposited Jun. 4, 1996, under ATCC Accession No. CRL-12121), for the human Y2 receptor, 293-hY2-10 (deposited Jan. 27, 1994, under ATCC Accession No. CRL-11537), for the human Y4 receptor, L-hY4-3 (deposited Jan. 11, 1995, under ATCC Accession No. CRL-11779), and for human Y5 receptor, L-hY5-7 (deposited Nov. 15, 1995, under ATCC Accession No. CRL-11995). These cell lines were deposited with the American Type Culture Collection (ATCC), 10801 University Blvd., Manassas, Va. 20110-2209, U.S.A. under the provisions of the Budapest Treaty for the International Recognition of the Deposit of Microorganisms for the Purposes of Patent Procedure.
Membranes were harvested from COS-7 cells 48 hours after transient transfection. Adherent cells were washed twice in ice-cold phosphate buffered saline (138 mM NaCl, 8.1 mM Na2HPO4, 2.5 mM KCl, 1.2 mM KH2PO4, 0.9 mM CaCl2, 0.5 mM MgCl2, pH 7.4) and lysed by sonication in ice-cold sonication buffer (20 mM Tris-HCl, 5 mM EDTA, pH 7.7). Large particles and debris were cleared by low speed centrifugation (200×g, 5 min, 4° C.). Membranes were collected from the supernatant fraction by centrifugation (32,000×g, 18 min, 4° C.), washed with ice-cold hypotonic buffer, and collected again by centrifugation (32,000×g, 18 min, 4° C.). The final membrane pellet was resuspended by sonication into a small volume of ice-cold binding buffer (˜1 ml for every 5 plates: 10 mM NaCl, 20 mM HEPES, 0.22 mM KH2PO4, 1.26 mM CaCl2, 0.81 mM MgSO4, pH 7.4). Protein concentration was measured by the Bradford method (Bradford, 1976) using Bio-Rad Reagent, with bovine serum albumin as a standard. Membranes were held on ice for up to one hour and used fresh, or flash-frozen and stored in liquid nitrogen.
Membranes were prepared similarly from 293, LM(tk-), and NIH-3T3 cells. To prepare membranes from baculovirus infected cells, 2×10^7 Sf21 cells were grown in 150 mm tissue culture dishes and infected with a high-titer stock of hY5BB3. Cells were incubated for 2-4 days at 27° C., no CO2 before harvesting and membrane preparation as described above.
Membrane suspensions were diluted in binding buffer supplemented with 0.1% bovine serum albumin to yield an optimal membrane protein concentration so that ^125I-PYY (or alternative radioligand such as ^125I-NPY, ^125I-PYY3-36, or ^125I-[Leu^31Pro^34]PYY) bound by membranes in the assay was less than 10% of ^125I-PYY (or alternative radioligand) delivered to the sample (100,000 dpm/sample=0.08 nM for competition binding assays). ^125I-PYY (or alternative radioligand) and peptide competitors were also diluted to desired concentrations in supplemented binding buffer. Individual samples were then prepared in 96-well polypropylene microtiter plates by mixing 125I-PYY (25 μL) (or alternative radioligand), competing peptides or supplemented binding buffer (25 μL), and finally, membrane suspensions (200 μL). Samples were incubated in a 30° C. water bath with constant shaking for 120 min. Incubations were terminated by filtration over Whatman GF/C filters (pre-coated with 1% polyethyleneimine and air-dried before use), followed by washing with 5 mL of ice-cold binding buffer. Filter-trapped membranes were impregnated with MeltiLex solid scintillant (Wallac, Turku, Finland) and counted for ^125I in a Wallac Beta-Plate Reader. Alternatively, incubations were carried out in GF/C filter plates (pre-coated with 1% polyethyleneimine and air-dried before use), followed by vacuum filtration and three washes of 300 μL of ice-cold binding buffer. 50 μL of UltimaGold (Packard) scintillant were added and counted for ^125I in a Wallac MicroBeta Trilux. […]

Experiment [2] concerns the target T1, human Y5 receptor (hNPY-5) (Homo sapiens, UniProt Q15761).
T1 construct: expressed in transfected cells; host or cells: mouse fibroblast LM(tk-) cells, e.g. L-hY5-7 (ATCC CRL-11995)
T1 sequence (Q15761 1-445): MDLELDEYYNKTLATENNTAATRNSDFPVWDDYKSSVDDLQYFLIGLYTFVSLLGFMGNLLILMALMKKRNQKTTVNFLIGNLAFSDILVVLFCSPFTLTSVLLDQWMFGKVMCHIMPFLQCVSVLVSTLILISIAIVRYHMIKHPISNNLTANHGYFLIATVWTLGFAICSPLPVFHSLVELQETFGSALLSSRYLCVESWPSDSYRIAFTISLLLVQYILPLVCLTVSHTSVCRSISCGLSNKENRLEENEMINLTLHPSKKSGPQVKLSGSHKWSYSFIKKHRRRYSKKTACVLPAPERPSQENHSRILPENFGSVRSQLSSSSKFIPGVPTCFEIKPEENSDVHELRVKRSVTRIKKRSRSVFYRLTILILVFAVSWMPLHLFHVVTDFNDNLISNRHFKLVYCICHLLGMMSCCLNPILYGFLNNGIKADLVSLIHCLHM
Description: Radioligand binding to membranes, cloned human Y5 receptor. To be noted: cloned human NPY Y5 receptor, radioligand competition binding; Tables 1-3; read-out: Ki, nM hNPY-5. The gist of the method: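 Competition binding on membranes from stably transfected 293 or LM(tk-) cells, with 0.08 nM ¹²⁵I-PYY in pH 7.4 HEPES buffer plus 0.1% BSA, 120 min at 30 °C, filtration and counting. Nonspecific binding defined by 300 nM human NPY, or 100 nM human PP for Y4; nonlinear regression.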
For orientation: In a radioligand displacement assay an active substance lowers the binding of a labelled ligand.

One may read the Ki as the dissociation constant of the complex between target and ligand, obtained from inhibition or displacement. In the case of `NS(=O)(=O)NCCCCCNc1nc2c(s1)CCCc1ccc(F)cc1-2` [Example 25, 1-Aza-9-fluoro-4,5-dihydro-2-(5-aminosulfonylamino)-pentylamino-3-thia-benzo[e]azulene], the Ki in experiment [1] is over 10000 nM; in experiment [2] it was 2.9 nM.

In the case of `CCS(=O)(=O)NCCCCCNc1nc2c(s1)CCCc1ccc(F)cc1-2` [Example 21, 1-Aza-9-fluoro-2-(5-ethylsulfonylamino)pentylamino-4,5-dihydro-3-thia-benzo[e]azulene], the Ki in experiment [1] is over 10000 nM; in experiment [2], 2.5 nM.

For `CCN(CC)S(=O)(=O)NCCCCNc1nc2c(s1)CCCc1ccc(F)cc1-2` [Example 22, 1-Aza-2-(4-diethylaminosulfonylamino)butylamino-9-fluoro-4,5-dihydro-3-thia-benzo[e]azulene], the values for the Ki in experiment [1] and in experiment [2] were over 10000 nM and 2.9 nM, respectively.

Take `O=S(=O)(N[C@H]1CC[C@H](CNc2nc3c(s2)CCCc2ccc(F)cc2-3)CC1)c1ccccc1F` [Example 42, trans-1-Aza-9-fluoro-2-{4-(2-fluoro)phenylsulfonyl-amino}-cyclohexylmethylamino-4,5-dihydro-3-thia-benzo[e]azulene]: the results for the Ki in experiment [1] and in experiment [2] were over 10000 nM and 3.9 nM, respectively.

As for `CCN(CC)S(=O)(=O)NC[C@H]1CC[C@H](Nc2nc3c(s2)CCSc2ccccc2-3)CC1` [Example 102, N′-{[4-(4,5-Dihydrobenzo[2,3]thiepino[4,5-d][1,3]thiazol-2-ylamino)cyclohexyl]methyl}-N,N-diethylsulfamide], the inhibition constant Ki in experiment [1] is over 10000 nM; in experiment [2] it was 5.2 nM.

With `COc1ccc(C)cc1S(=O)(=O)NC[C@H]1CC[C@H](Nc2nc3c(s2)CCOc2ccccc2-3)CC1` [Example 48, trans-1-Aza-4,5-dihydro-2-{4-(2-methoxy-5-methyl)phenyl-sulfonylaminomethyl}cyclohexylamino-6-oxa-3-thia-benzo[e]azulene], the values for the Ki in experiment [1] and in experiment [2] were over 10000 nM and 15.1 nM, respectively.

With `O=S(=O)(CC(F)(F)F)NCCCCNc1nc2c(s1)CCCc1ccc(F)cc1-2` [Example 39, 1-Aza-9-fluoro-4,5-dihydro-2-(4-(2,2,2-trifluoroethyl)-sulfonylamino)butylamino-3-thia-benzo[e]azulene], the figures for the Ki in experiment [1] and in experiment [2] were over 10000 nM and 4.8 nM, respectively.

In the case of `CCN(CC)S(=O)(=O)NCCCCCNc1nc2c(s1)CCSc1ccccc1-2` [Example 103, N′-[5-(4,5-Dihydrobenzo[2,3]thiepino[4,5-d][1,3]thiazol-2-ylamino)pentyl]-N,N-diethylsulfamide], the Ki in experiment [1] was over 10000 nM; in experiment [2], 3.7 nM.

Turning to `O=S(=O)(NCCCCCNc1nc2c(s1)CCCc1ccc(F)cc1-2)c1ccc(F)cc1F` [Example 12, 1-Aza-9-fluoro-4,5-dihydro-2-(5-(2,4-difluoro-phenyl)sulfonylamino)pentylamino-3-thia-benzo[e]-azulene], the Ki in experiment [1] is over 1000 nM; in experiment [2], 6.1 nM.

Consider `O=S(=O)(NC[C@H]1CC[C@H](Nc2nc3c(s2)CCCc2ccc(F)cc2-3)CC1)c1ccccc1F` [Example 26, trans-1-aza-9-fluoro-2-(4-(2-fluorophenyl)sulfonyl-amino-methyl)cyclohexylamino-4,5-dihydro-3-thia-benzo [e]-azulene], for which the Ki in experiment [1] is over 10000 nM; in experiment [2], 13.1 nM.

For `CS(=O)(=O)NCCCCNc1nc2c(s1)CCCc1ccc(F)cc1-2` [Example 5, 1-Aza-9-fluoro-4,5-dihydro-2-(4-(methane-sulfonylamino)-butyl)amino-3-thia-benzo[e]azulene], the values for the inhibition constant (Ki) in experiment [1] and in experiment [2] were over 10000 nM and 19.8 nM, respectively.

`O=S(=O)(NC[C@H]1CC[C@H](Nc2nc3c(s2)CCCc2ccc(F)cc2-3)CC1)c1cccs1` [Example 30, trans-N2-(4-(2-Thienylsulfonyl)aminomethyl)-cyclohexyl-9-fluoro-5,6-dihydro-4H-benzo[6,7]-cyclohepta[d][1,3]thiazol-2-amine]: the Ki was over 10000 nM in experiment [1] and 4.2 nM in experiment [2].

In the case of `O=S(=O)(Cc1ccccc1)NCCCCCNc1nc2c(s1)CCCc1ccc(F)cc1-2` [Example 16, 1-Aza-2-(5-benzylsulfonylamino)pentylamino-9-fluoro-4,5-dihydro-3-thia-benzo[e]azulene], the Ki was over 10000 nM in experiment [1] and 4.7 nM in experiment [2].

For the compound `Cc1noc(C)c1S(=O)(=O)NC[C@H]1CC[C@H](Nc2nc3c(s2)CCCc2ccc(F)cc2-3)CC1` [Example 33, trans-1-Aza-9-fluoro-4,5-dihydro-2-{4-(3,5-dimethylisoxazol-4-yl)sulfonylaminomethyl}cyclohexyl-amino-3-thia-benzo[e]azulene], the Ki in experiment [1] was over 10000 nM; in experiment [2], 6.8 nM.

With `O=S(=O)(NC[C@H]1CC[C@H](Nc2nc3c(s2)CCCc2ccc(F)cc2-3)CC1)c1ccc(F)c(F)c1` [Example 40, trans-1-Aza-9-fluoro-2-{4-(3,4-difluorophenyl)-sulfonyl-aminomethyl}cyclohexylamino-4,5-dihydro-3-thia-benzo[e]azulene], the Ki in experiment [1] is over 10000 nM; in experiment [2], 19.5 nM.

For the compound `O=S(=O)(NCCCCCNc1nc2c(s1)CCCc1ccc(F)cc1-2)c1ccc(F)c(F)c1` [Example 17, 1-Aza-2-(5-(3,4-difluorophenyl)sulfonylamino)-pentylamino-9-fluoro-4,5-dihydro-3-thia-benzo[e]-azulene], the Ki in experiment [1] was over 10000 nM; in experiment [2], 11 nM.

As for `COc1ccc(S(=O)(=O)NC[C@H]2CC[C@H](Nc3nc4c(s3)CCCc3ccc(F)cc3-4)CC2)cc1` [Example 27, trans-1-Aza-9-fluoro-4,5-dihydro-2-{4-(4-methoxy-phenyl)-sulfonylaminomethyl}cyclohexylamino-3-thia-benzo[e]azulene], the Ki in experiment [1] is over 10000 nM; in experiment [2] it was 9.2 nM.

Consider `Cn1cnc(S(=O)(=O)NC[C@H]2CC[C@H](Nc3nc4c(s3)CCCc3ccc(F)cc3-4)CC2)c1` [Example 32, trans-1-Aza-9-fluoro-4,5-dihydro-2-{4-(1-methylimidazolyl-4-yl)sulfonylaminomethyl}cyclohexyl-amino-3-thia-benzo[e]azulene], for which the inhibition constant Ki in experiment [1] is over 10000 nM; in experiment [2] it was 2.9 nM.
